Earlier results, collected in publication PMC6719874 (PLoS ONE, 2019).
Entries after “also recorded” stand apart in the source; their conditions may differ.

Columns and labels:
L-type calcium channels = test system: L-type calcium channels; set-up: method as in PMID 17125805, PMID 19887376
[1] = test system: tumors / human xenografts
Y652A hERG = biological target: T1, Y652A hERG (Homo sapiens, UniProt Q12809, Y652A); settings: Y652A ref 87
T1 construct: host or cells: Xenopus laevis oocytes injected with cRNA

F656A hERG = F656A hERG (Homo sapiens, UniProt Q12809, F656A); settings: F656A ref 87
F656A hERG, sequence (Q12809 whole entry F656A): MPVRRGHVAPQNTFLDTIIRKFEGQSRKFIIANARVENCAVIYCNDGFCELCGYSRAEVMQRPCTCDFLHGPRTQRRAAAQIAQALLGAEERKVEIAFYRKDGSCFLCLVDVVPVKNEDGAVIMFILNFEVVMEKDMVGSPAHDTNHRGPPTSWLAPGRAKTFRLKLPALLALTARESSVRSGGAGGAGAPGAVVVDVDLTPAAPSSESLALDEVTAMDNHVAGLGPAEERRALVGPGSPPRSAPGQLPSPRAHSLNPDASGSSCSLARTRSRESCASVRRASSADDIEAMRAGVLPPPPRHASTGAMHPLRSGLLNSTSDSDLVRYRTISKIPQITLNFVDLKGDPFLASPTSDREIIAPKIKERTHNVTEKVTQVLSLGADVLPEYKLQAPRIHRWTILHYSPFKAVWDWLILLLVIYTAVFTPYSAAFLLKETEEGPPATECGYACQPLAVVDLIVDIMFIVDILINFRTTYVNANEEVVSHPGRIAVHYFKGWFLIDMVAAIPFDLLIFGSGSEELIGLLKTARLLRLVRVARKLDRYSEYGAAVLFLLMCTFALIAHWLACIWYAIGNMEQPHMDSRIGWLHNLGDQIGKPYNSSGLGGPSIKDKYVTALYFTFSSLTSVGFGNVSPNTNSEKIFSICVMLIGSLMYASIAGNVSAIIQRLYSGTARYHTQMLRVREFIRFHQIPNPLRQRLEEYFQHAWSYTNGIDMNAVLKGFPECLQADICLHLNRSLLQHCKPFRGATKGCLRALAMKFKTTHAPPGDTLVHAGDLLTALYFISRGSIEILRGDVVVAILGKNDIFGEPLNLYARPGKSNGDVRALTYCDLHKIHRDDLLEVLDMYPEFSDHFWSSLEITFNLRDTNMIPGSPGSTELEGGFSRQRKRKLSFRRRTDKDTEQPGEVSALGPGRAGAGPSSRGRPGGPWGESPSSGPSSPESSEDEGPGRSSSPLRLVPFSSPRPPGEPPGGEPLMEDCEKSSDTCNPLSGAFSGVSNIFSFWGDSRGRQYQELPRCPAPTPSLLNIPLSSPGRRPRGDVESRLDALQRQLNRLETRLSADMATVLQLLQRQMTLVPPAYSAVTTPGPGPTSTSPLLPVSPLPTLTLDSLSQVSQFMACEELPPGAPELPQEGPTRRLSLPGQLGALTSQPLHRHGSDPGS

T1 sequence (Q12809 whole entry Y652A): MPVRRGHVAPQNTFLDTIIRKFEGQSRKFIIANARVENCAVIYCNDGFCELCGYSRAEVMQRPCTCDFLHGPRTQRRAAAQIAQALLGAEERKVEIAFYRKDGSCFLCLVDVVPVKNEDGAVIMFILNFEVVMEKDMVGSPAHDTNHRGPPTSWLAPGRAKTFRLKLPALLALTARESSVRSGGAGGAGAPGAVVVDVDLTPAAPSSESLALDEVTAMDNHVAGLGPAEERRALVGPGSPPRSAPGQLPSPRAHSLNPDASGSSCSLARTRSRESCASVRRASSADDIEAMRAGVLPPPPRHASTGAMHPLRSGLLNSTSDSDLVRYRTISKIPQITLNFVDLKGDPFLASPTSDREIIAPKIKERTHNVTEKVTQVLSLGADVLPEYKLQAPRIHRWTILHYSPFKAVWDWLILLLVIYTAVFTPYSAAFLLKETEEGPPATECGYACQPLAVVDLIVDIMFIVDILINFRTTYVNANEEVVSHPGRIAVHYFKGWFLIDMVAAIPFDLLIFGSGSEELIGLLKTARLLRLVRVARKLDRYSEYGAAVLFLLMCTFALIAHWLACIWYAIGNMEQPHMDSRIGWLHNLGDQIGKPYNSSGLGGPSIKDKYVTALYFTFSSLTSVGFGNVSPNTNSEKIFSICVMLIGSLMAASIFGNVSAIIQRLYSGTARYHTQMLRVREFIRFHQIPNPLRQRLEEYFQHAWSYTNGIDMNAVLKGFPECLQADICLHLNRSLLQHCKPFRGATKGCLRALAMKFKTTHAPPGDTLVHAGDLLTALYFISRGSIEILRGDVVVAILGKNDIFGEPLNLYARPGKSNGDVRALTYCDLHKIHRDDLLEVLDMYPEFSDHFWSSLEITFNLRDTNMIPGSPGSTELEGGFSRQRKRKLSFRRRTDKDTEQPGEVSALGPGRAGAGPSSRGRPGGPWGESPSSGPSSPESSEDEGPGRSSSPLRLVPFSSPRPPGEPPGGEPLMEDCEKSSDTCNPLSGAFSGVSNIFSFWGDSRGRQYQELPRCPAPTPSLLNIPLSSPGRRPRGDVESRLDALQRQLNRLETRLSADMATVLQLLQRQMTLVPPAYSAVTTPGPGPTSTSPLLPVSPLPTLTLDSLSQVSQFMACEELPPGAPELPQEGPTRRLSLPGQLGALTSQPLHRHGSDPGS

| Structure (SMILES) | inhibition of S620T compared to WT (S620T hERG) | potency of inhibition (L-type calcium channels) | tumor suppression ([1]; mice ref 75-77) | growth delay of human xenografts ([1]; mice ref 78) | QT prolongation or other cardiac side effects (clinical trial, range of concentrations ref 18) | tolerability (phase II clinical trials) | fold change in IC50 in relation to WT (Y652A hERG) | fold change in IC50 in relation to WT (F656A hERG) |
| --- | --- | --- | --- | --- | --- | --- | --- | --- |
| CCC(CO)Nc1nc(NCc2ccccc2)c2ncn(C(C)C)c2n1 (centres unmarked) [R-roscovitine, 2-(1-ethyl-2-hydroxyethylamino)-6-benzylamino-9-isopropylpurine] | similar; also recorded: not different from WT inhibition | ~ 25 μM | significant tumor suppression | significant growth delay | did not find QT prolongation or other cardiac side effects | well tolerated | – | – |
| Cc1cccc(C)c1OCC(C)N (centres unmarked) [mexiletine] | – | – | – | – | – | – | ~ 12 fold | ~ 28 fold |
